# Results: patent publication US20090175924A1, “COATED STENT” (BIONERIS AB, priority 2002, published 2009)
# Columns and labels:
# mice = type: in vivo; settings: intravenous
# Method: A method described by S. Irwin (Psychopharmacologica, 1968, 13, 222) was used to detect general physiological, behavioural and toxic effects of a series of compounds. The tested compounds were administered intra veneously to mice (3 animals per compound and dose) and the behavioural modification and neurotoxicity symptoms such as mortality, sedation, excitation, aggressiveness, straub, writhes, convulsions, tremor, exophtalamos, salivation, lacrimation, piloerection, defecation, fear, traction, reactivity to touch, loss of righting reflex, sleep, motor incoordination, muscle tone, stereotypies, catalepsy, grasping, ptosis, difficulty in respiration, corneal reflex, analgesia and gait were recorded compared to a control group, Furthermore, rectal temperature and pupil diameter were recorded.
# [1] = tested on: Human pulmonary artery smooth muscle cells (HPASMCs); assay: FGF2-stimulated proliferation of smooth muscle cells (3H-thymidine incorporation); type: cell-based; settings: 1 nM FGF2, 24 hours
# Method: Vascular smooth muscle cell proliferation contributes to restenosis after coronary angioplasty. Human pulmonary artery smooth muscle cells (HPASMCs) were maintained in Medium 231 supplemented with Smooth muscle Growth Supplement. The cells, medium and supplement were obtained from Caascade Biologics Inc., Portland, Oreg., USA.
# The cells were grown as monolayer culture in 100-mm diameter plastic tissue culture dishes (Nunc, Roskilde, Denmark) with 10 ml medium in 37° C. in a humidified atmosphere of 95% air and 5% CO2 and subcultured at 4- to 6-day intervals. For measurement of cell growth, cells were seeded at density 5.0*10^3/well in 96 well dishes in DMEM+0.2% FBS for 3 days. Culture medium was then removed and cells were seeded in DMEM+0.2% FBS with 1 nM of basic fibroblast growth factor (FGF2). The addition of FGF2 induces cell proliferation of the HPASMCs. The FGF2 used was a recombinant human substance from Boehringer Mannheim Biochemica, Espoo, Finland. Various concentrations of D-myo-inositol-1,2,6-trisphosphate (IP3) were added and the number of parallel wells in each treatment was four. The proliferation of cells was analysed after 24 hours of incubation by labelling each well with 0.2 μCi of ^3H-thymidine for two hours. After that the cells were trypsinated and harvested on a filter. A Melt-on scintillator (Meltilex™ A; Wallac, Turku, Finland) was allowed to melt on the filter. The radioactivity of the sheets was counted on a liquid scintillator counter (1450 Microbeta Wallac, Turku, Finland).
# Stimulation of proliferation was inhibited by the addition of IP3 with the following result:
# In a procedure similar to the one described in Example 1, D-3,4,5-tri-O-(phenylcarbamoyl) myo-inositol-1,2,6-trisphosphate (PP 11-201) was added with the result shown below: […]
# Wistar rats = assay: Neointima formation after balloon catheter injury of the carotid artery in rats; type: in vivo, rat; settings: for elasticity of the vessel walls (microscopic investigation): compared to the control group; for Neointima formation / Reduction (%) of neointima formation: rat carotid, 14 days post-operatively, 1 mg/kg/hr; for Neointima formation: subcutaneous osmotic minipumps; for Reduction (%) of neointima formation: versus saline control, osmotic minipumps
# Method: The effects on neointima formation was assessed after inducing vessel injury in rats with a balloon catheter. Neointima formation is an important part in the process of restenosis. Adult mate Wistar rats (250-260 g) were housed under standard conditions and were fed with commercial rat chow and water ad libitum. During the experiment D-myo-inositol-1,2,6-trisphosphate (IP3) was administered via subcutaneously operated osmotic minipumps with a dose level of 1 mg/kg/hr. A control group received saline solution by osmotic minipumps. The animals were anaesthetised with an intraperitoneal injection of ketamine, 100 mg/kg, (MTC Pharmaceuticals, Cambridge, Ontario, Canada) and xylazine, 10 mg/kg (Bayer Inc., Etobicoke, Ontario, Canada). Using a dissecting microscope, the left carotid artery was exposed on the ventral side of the neck via a midline incision. The bifurcation of the carotid artery was located and two ligatures were placed around the external carotid artery, which was then tied off with the distal ligature. After temporarily occluding the internal carotid artery with a vascular clamp, a small incision was made between the two ligatures placed around the external carotid artery to introduce the endothelial denudation device, an inflated […] Fogarty embolectomy catheter (Baxter Healthcare, Buckinghamshire, UK). Each animal was de-endothelialised by three passages of the catheter and the carotid artery was tied off proximal to the incision hole. The clamp was removed and the pulse of the carotid artery was rechecked. The skin incision was closed with a single suture. 14 days post-operatively, the animals were sedated. An abdominal incision was made to access the abdominal aorta for insertion of a cannula connected to a perfusion apparatus. The animals where killed by an overdose of anaestetic and then perfused with heparinised phosphate buffered saline (pH 7.4) at a rate of 100 ml/min per kg body weight and a pressure of 120 mm Hg. After replacement of saline, 4% paraformaldehyde in isotonic saline was introduced at the same flow rate. After fixation in situ, the carotids were dissected free. Three mid-carotid segments, approximately 10 mm long were rinsed and placed in 4% parafomaldehyde for another 16 hours before embedding and freezing in Tissue-Tek OCT media (Miles Inc., Elkhart, Ind., USA). Frozen sections were stained with Movat's pentachrome and immunohistochemistry was performed using antibodies in order to examine the process of restenosis by measurement of the neointima formation.
# In a procedure similar to the one described in Example 3, D-3,4,5-tri-O-(phenylcarbamoyl)myo-inositol-1,2,6-trisphosphate (PP 11-201) was added with the result shown below: […]
compound,measurement,setting,value
"1,2-O-ethylene-β-D-fructopyranoside-2,3,4-trisphosphate",Dose where effects are observed,mice,>512 mg/kg
"O=P(O)(O)OC1CN(CCc2ccccc2)CC(OP(=O)(O)O)C1OP(=O)(O)O (centres unmarked) [1,5-dideoxy-1,5-imino-N-(2-phenylethyl)arabinitol-2,3,4-trisphosphate]",Dose where effects are observed,mice,>512 mg/kg
"CCCCC(=O)OC1C(OC(=O)CCCC)C(OP(=O)(O)O)C(OP(=O)(O)O)C(OP(=O)(O)O)C1OC(=O)CCCC [D-3,4,5-tri-O-pentanoyl-myo-inositol-1,2,6-trisphosphate]",Dose where effects are observed,mice,128 mg/kg
"CCC(=O)OC1C(OC(=O)CC)C(OP(=O)(O)O)C(OP(=O)(O)O)C(OP(=O)(O)O)C1OC(=O)CC [D-3,4,5-tri-O-propanoyl-myo-inositol-1,2,6-trisphosphate]",Dose where effects are observed,mice,256 mg/kg
"O=C(O)CP(=O)(O)O[C@@H]1[C@H](OP(=O)(O)CC(=O)O)[C@H](O)[C@@H](O)[C@H](O)[C@H]1OP(=O)(O)CC(=O)O [D-myo-inositol-1,2,6-tris(carboxymetylphosphonate)]",Dose where effects are observed,mice,>512 mg/kg
"O=P(O)(O)O[C@@H]1[C@H](OP(=O)(O)O)[C@H](O)[C@@H](O)[C@H](O)[C@H]1OP(=O)(O)O [IP3, D-myo-inositol-1,2,6-trisphosphate]",inhibition (%) of FGF2-stimulated proliferation,[1]; 1 μM,61%
same,inhibition (%) of FGF2-stimulated proliferation,[1]; 10 μM,44%
same,inhibition (%) of FGF2-stimulated proliferation,[1]; 100 μM,68%
same,Dose where effects are observed,mice,>512 mg/kg
same,elasticity of the vessel walls (microscopic investigation),Wistar rats,improved
same,Neointima formation,Wistar rats,0.48 mm^2
same,Reduction (%) of neointima formation,Wistar rats,57%
"O=C(Nc1ccccc1)O[C@@H]1[C@@H](OC(=O)Nc2ccccc2)[C@@H](OP(=O)(O)O)[C@@H](OP(=O)(O)O)[C@H](OP(=O)(O)O)[C@H]1OC(=O)Nc1ccccc1 [PP 11-201, D-3,4,5-tri-O-(phenylcarbamoyl)myo-inositol-1,2,6-trisphosphate]",inhibition (%) of FGF2-stimulated proliferation,[1]; 0.1 μM,49%
same,inhibition (%) of FGF2-stimulated proliferation,[1]; 1 μM,61%
same,inhibition (%) of FGF2-stimulated proliferation,[1]; 10 μM,70%
same,elasticity of the vessel walls (microscopic investigation),Wistar rats,improved
same,Neointima formation,Wistar rats,0.43 mm^2
same,Reduction (%) of neointima formation,Wistar rats,62%
"CCCCOC[C@H]1O[C@H](OC)[C@H](OP(=O)(O)O)[C@@H](OP(=O)(O)O)[C@@H]1OP(=O)(O)O [methyl-6-O-butyl-α-D-glycopyranoside-2,3,4-trisphosphate]",Dose where effects are observed,mice,256 mg/kg
"methyl-6-O-butyl-α-D-mannopyranoside-2,3,4-trisphosphate",Dose where effects are observed,mice,>512 mg/kg
